Experimental data taken from patent US20220000892A1, “INFANT NUTRITIONAL COMPOSITION FOR USE IN THE ENHANCEMENT OF PANCREATIC MATURATION AND INSULIN BIOSYNTHESIS” (SOCIETE DES PRODUITS NESTLE S.A., priority 2018, published 2022).

Test system: IUGR rats
Assay: Insulin content of pancreas of IUGR rats at postnatal day 57 after HMO supplementation (ELISA)
Assay type: in vivo, Sprague-Dawley rats
Settings: gavage 3 g/kg body weight d7 to d21, then diet with 4.5 wt% HMO d22 to d57, sacrifice at day 57 after 6-hr fasting, compared with control IUGR rats (about 50 μg insulin per g pancreatic tissue), FIG. 1, *P<0.05
Description: Three groups of time-mated pregnant Sprague-Dawley female rats were bought from Charles River laboratories. One group was submitted to food restriction of 60% during the last 10 days of gestation and their offspring were cross-fostered to normally fed rats. A second group of pregnant females was normally fed and their offspring cross-fostered among the same group of dams. Immediately after birth ([…]), the born rat pups-subjects of the experiment-were assigned to one of the following groups: • IUGR group (negative control; n=20): IUGR rats being fed a normal diet after birth; • IUGR rats+HMO (test groups): During the experiment, they were reared by their mothers for 21 days and supplemented with HMOs (2-FL, LNnT or the Mix of 2-FL and LNnT). At weaning, they were fed a diet supplemented with the same HMOs, see details below. […] All rat pups were fed from birth (d=1) up to 57 days (d=57) based on the following protocol: • d1 to d6: all groups of rats were nursed by dam (mothers' milk only); • d7 to d21: all rats were nursed by dam (mothers' milk only). […] Rats were sacrificed at day 57 (postnatal day 57=p57) after a 6-hr fasting period and pancreas was dissected and its insulin content was extracted using a solution acid-ethanol and quantified using an Ultra Sensitive Insulin ELISA kit ([…]., Downer Grove, Ill., USA) with and inter assay CV of 4.0%.

Row | Compound | insulin content of the rat's pancreas (amount of insulin per gram of pancreatic tissue)
1 | CC(=O)N[C@H]1[C@H](O[C@H]2[C@@H](O)[C@@H](CO)O[C@@H](O[C@H]3[C@H](O)[C@@H](O)C(O)O[C@@H]3CO)[C@@H]2O)O[C@H](CO)[C@@H](O[C@@H]2O[C@H](CO)[C@H](O)[C@H](O)[C@H]2O)[C@@H]1O (mixture of isomers) [LNnT, lacto-N-neotetraose] | about the same level of insulin
2 | 2′-fucosyllactose [2FL] | significantly higher value of insulin
